The source of these data is patent publication US20170368037A1, “PHARMACEUTICAL COMPOSITION FOR PROMOTION OF FIBRINOLYSIS” (Daiichi Sankyo Company, Limited, priority 2014, published 2017).

For test [1], the system named is fibrinolysis induced by tPA in human plasma. Nature of the test: Fibrinolysis assay (clot lysis time in human plasma containing tPA and TM), Example 2. Type of test: biochemical. To be noted: tPA 180 ng/mL, TM 0.1 nM, vs control. The procedure: Edoxaban was dissolved in DMSO to prepare a 10 mM solution, which was then stored at −30° C. Before use, the frozen product was thawed and diluted with DMSO and saline (DMSO concentration in test substance solution: 1.92%).
PCI (Sigma-Aldrich, Co. LLC.) was dissolved in Hepes buffer to prepare a 4.8 mg/mL solution, which was then stored at −30° C. Before use, the frozen product was thawed and diluted with Hepes buffer.
Hepes buffer, tPA solution, and PPP reagent were prepared in the same way as in Example 1(2). […]
70 μL of the human plasma sample (containing tPA and TM), 5 μL each of varying concentrations of the edoxaban solution, 5 μL of PCI, and 20 μL of the PPP reagent were added to each well of a 96-well plate (Sumilon Proteosave SS 96F plate, MS-8296F). […] Absorbance at 405 nm was measured every 30 seconds using SpectraMAX 384 Plus prewarmed to 37° C. The time for the absorbance to decrease to ½ of the peak from the time to reach ½ of the peak was calculated using SoftMax Pro 5.4.1 and used as clot lysis time. […]
Two experiments were conducted on each of 3 lots of human plasma (n=6). The basic statistics (mean, standard deviation, and standard error) of the clot lysis time were calculated, and the results were indicated by mean±standard error (SEM). […] Concentration dependence was evaluated by Spearman's rank correlation coefficient hypothesis test. […]

Test [2] has the same test system. The test is described as follows: Fibrinolysis assay (clot lysis time induced by tPA in human plasma), Example 1. It is filed as biochemical. To be noted: tPA 180 ng/mL, edoxaban 18.8 ng/mL to 300 ng/mL, vs control. How it is done: Edoxaban was dissolved in dimethyl sulfoxide (hereinafter, also referred to as “DMSO”) (Wako Pure Chemical Industries, Ltd.) to prepare a 10 mM solution, which was then stored at −30° C. Before use, the frozen product was thawed and diluted with DMSO and saline (Otsuka Pharmaceutical Factory, Inc.) (DMSO concentration in test substance solution: 0.96%, final DMSO concentration in reaction system: 0.08%).
Hepes buffer: Hepes (Sigma-Aldrich, Co. LLC.) and NaCl (Nacalai Tesque Inc.) were dissolved at 20 mM and 140 mM, respectively, in distilled water, and the solution was adjusted to pH 7.4 using a 1 mol/L sodium hydroxide solution (Nacalai Tesque Inc.). […]
70 μL of the human plasma sample (containing tPA), 10 μL each of varying concentrations of the edoxaban solution, and 20 μL of the PPP reagent were added to each well of a 96-well plate (Sumilon Proteosave SS 96F plate, MS-8296F). […] Absorbance at 405 nm was measured every 30 seconds using SpectraMAX 384 Plus (Molecular Devices, LLC.) prewarmed to 37° C. The time for the absorbance to return to ½ of the peak from the time to reach ½ of the peak was calculated using SoftMax Pro 5.4.1 (Molecular Devices, LLC.) and used as clot lysis time. […]
Two experiments were conducted on each of 3 lots of human plasma (n=6). […] The calculated P value was rounded off and indicated by three decimal places. […]

For the compound “PCI: carboxypeptidase inhibitor from potato tuber, a TAFIa inhibitor (Sigma-Aldrich) (QQHADPICNKPCKTHDDCSGAWFCQACWNSARTCGPYVG; UniProt P01075 1-39, looked up)”, in test [1] (PCI alone 0.3 to 3 μg/mL), the clot lysis time entry is reported as “significantly shortened the clot lysis time in a concentration-dependent manner”.

For the compound `CN1CCc2nc(C(=O)N[C@@H]3C[C@@H](C(=O)N(C)C)CC[C@@H]3NC(=O)C(=O)Nc3ccc(Cl)cn3)sc2C1` [Edoxaban, N-(5-chloropyridin-2-yl)-N′-[(1S,2R,4S)-4-(dimethylcarbamoyl)-2-(5-methyl-4,5,6,7-tetrahydro[1,3]thiazolo[5,4-c]pyridine-2-carboxamido)cyclohexyl]oxamide], the clot lysis time result is recorded as “significantly shortened the clot lysis time in a concentration-dependent manner” in test [1] (edoxaban alone 150 and 300 ng/mL); “significantly shortened the clot lysis time in a concentration-dependent manner” in test [2].
